Consider 8 compounds from patent US5599548A, “Skin care compositions containing fatty acid amides and retinol or retinyl ester” (priority 1995, dated 1997).

Read-outs that look alike come from different tables or passages of the source.

Assay [1] deals with TGase I (keratinocyte transglutaminase level). The assay can be described thus: Transglutaminase (TGase I) ELISA assay (keratinocyte differentiation). It is filed as cell-based, human. Conditions: for activity at 0.1 µM / mean TGase level ± s.d: 72 h, ROH 2.5 × 10^-7 M; for effect on keratinocyte TG1 levels / differentiation, in words: concentrations as in the respective Example. As to the method: (§1) Human keratinocytes, isolated from neonatal foreskin by trypsin treatment were grown in Dulbecco Modification Eagle (DME) Hams F12 (1:1) medium/10% fetal calf serum in the presence of irradiated 3T3 mouse fibroblasts for establishing dividing keratinocyte colonies. Cells were grown under the above condition until their second passage and kept frozen for future use. […] On day 7, when the cells were 80-90% confluent, they were trypsinized and plated in the serum-free medium for the various experiments.
During the process of terminal differentiation in the epidermis, a 15 nm thick layer of protein, known as the cornified envelope (CE) is formed on the inner surface of the cell periphery. The CE is composed of numerous distinct proteins which have been cross-linked together by the formation of N^ε -(γ-glutamyl) lysine isodipeptide bonds catalyzed by the action of at least two different transglutaminases (TGases) expressed in the epidermis. TGase I is expressed in abundance in the differentiated layers of the epidermis, especially the granular layer, but is absent in the undifferentiated basal epidermis. Thus TGase I is a useful marker of epidermal keratinocyte differentiation with high TGase I levels indicating a more differentiated state. An ELISA based TGase I assay, using a TGase I antibody, was used to assess the state of differentiation of the cultured keratinocytes in the examples that follow.
Keratinocytes (cultured as described above) were plated in 96 well plates at a density of 3,000 cells per well in 200 μl media. After incubation for four days the media was changed to media containing test compounds (six replicates per test). The cells were cultured for a further 72 hours after which time the media was aspirated and the plates stored at -70° C. Plates were removed from the freezer, and the cells washed with PBS. 100 μl sterile water was added and the cells were freeze fractured by freezing at -70° C. then thawing. The cells were incubated for one hour at room temperature (R/T) with PBS/3% BSA (wash buffer, bovine serum albumin), then rinsed with a fresh aliquot of wash buffer. Cells were incubated with 50 μl of primary antibodies monoclonal anti-human transglutaminase (IgG) obtained from Amersham (mouse) diluted 1:300 in wash buffer for one hour, 37° C. then rinsed two times with wash buffer. Cells were then incubated with 50 μl of secondary antibody (Feb fragment, peroxidase conjugated anti-mouse IgG obtaining from Amersham) diluted 1:200 in wash buffer for one hour at 37° C., then rinsed two times with wash buffer. Cells were incubated with substrate solution (4 mg o-phenylene diamine and 3.3 μl 30% H2 O2 in 10 ml 0.1M citrate buffer pH 5.0) for five minutes, R/T, in darkness (under aluminum foil). The reaction was stopped by the addition of 50 μl 4N H2 SO4. The absorbance of samples was read at 492 nm in the plate reader. Out of the six replicates, four were treated with both antibodies, two were treated only with the secondary antibody (i.e., to determine background binding of enzyme conjugated Ab). TGase levels were determined by subtracting background from the readings from each treatment and determining mean ±s.d. for the replicates exposed to both Ab.
Background: In an ELISA, binding on a coated surface is turned into a signal by an enzyme label.

Assay [2] relates to Human keratinocytes. The assay can be described thus: 3H-Thymidine incorporation (keratinocyte proliferation). Type of assay: cell-based. Conditions: for effect on keratinocyte proliferation, in words: concentrations as in the respective Example; for activity at 0.001 µM: Table 4D, ROH 2.5 × 10^-8 M, linoleoyl-MEA 10^-9 M; for activity at 0.001 µM / activity at 1 µM: RA; for activity at 1 µM: Table 4C, retinol 2.5 × 10^-8 M, palmitoyl-MEA 10^-6 M. As to the method:
as §1
The incorporation of […] by cultured keratinocytes was used as an assay of keratinocyte proliferation. Thymidine is one of four deoxynucleosides which are the monomeric units of DNA, the universal library of genetic information in the animal kingdom. Prior to cell division of a somatic cell such as a keratinocyte, the complete genome of the cell undergoing cell division is replicated. This involves large scale DNA synthesis by the cell and enables both daughter cells to receive identical copies of the genetic material. When ^3 H-thymidine is included in the culture media of keratinocytes which are synthesizing DNA in preparation for cell division then the labelled nucleoside is incorporated into the newly synthesized DNA. The extent of incorporation of ^3 H-thymidine into a population of cells is proportional to the rate of DNA synthesis by this population of cells and therefore an indication of their cellular proliferation.
Keratinocytes (that were cultured as described above) were plated in 24 well plates at a density of 40,000 cells per well in 1 ml media. After incubation for four days or until the cells were 60-70% confluent, the media was changed. Test compounds were added (in triplicate) to the wells 24 hours after the media change, and four hours later 1μCi^3 H-Thymidine in 50 μl media was added per well. Cells were incubated for a further 24 hours. Media was removed from the cells, 10% ice cold trichloroacetic acid (TCA) added and plates were incubated on ice for 30 minutes. Cells were washed five times with 5% TCA and allowed to dissolve in 500 μl 0.1M NaOH for at least one hour (usually overnight). The preparations were neutralized with 0.1M HCl; 50 μl of the cell preparation was used to determine total protein content. Disintegrations per minute (DPM) from ^3 H labelling of DNA was determined by liquid scintillation counting of […] of the cell preparation. Thymidine incorporation results were expressed as DPM/μg protein.
In general terms: Incorporation of labelled thymidine or its analogues reports DNA synthesis.

On to `CC(N)=O` [Acetamide (C2), acetamide], for which the activity at 0.1 µM in assay [1] (Homo sapiens, Keratinocyte, Table 6B, RA, acetamide 10^-7 M, alone or combined, n = 3, read-out: TGase (TG1) level, % control) is 98%. The “mean TGase level ± s.d” value in assay [1] (Table 6B (Effect on Keratinocyte TGase), RA, acetamide 10^-7 M, alone or combined, n = 3) is reported as 0.480 ± 0.042. Besides, the “effect on keratinocyte TG1 levels / differentiation, in words” value in assay [1] is reported as “no effect on keratinocyte TG1 levels”.

`NC=O` [Formamide (C1), formamide]: the activity at 0.1 µM in assay [1] (Homo sapiens, Keratinocyte, Table 6A, RA, formamide 10^-7 M, alone or combined, n = 3, read-out: TGase (TG1) level, % control) came to 85%. The “mean TGase level ± s.d” value in assay [1] (Table 6A (Effect on Keratinocyte TGase), RA, formamide 10^-7 M, alone or combined, n = 3) is recorded as 0.413 ± 0.069. In assay [1], the “effect on keratinocyte TG1 levels / differentiation, in words” value is given as “small inhibitory effect on keratinocyte TG1 levels”.

For the compound `CCCCC/C=C\C/C=C\CCCCCCCC(=O)O` [Linoleic acid (LA), Linoleic acid], the activity at 1 µM in assay [1] (Homo sapiens, Keratinocyte, Table 5A, RA, retinol 2.5 × 10^-7 M, linoleic acid 10^-6 M, alone or combined, n = 3, read-out: TGase (TG1) level, % control) was above 100%. Also, the “mean TGase ± s.d” value in assay [1] (Table 5A, RA, retinol 2.5 × 10^-7 M, linoleic acid 10^-6 M, alone or combined, n = 3) came out at 0.161 ± 0.061. Also, the “effect on keratinocyte TG1 levels / differentiation, in words” value in assay [1] was “appeared to stimulate TG1”.

As for `CCCCC/C=C\C/C=C\CCCCCCCC(=O)OC` [Methyl linoleate, methyl linoleate], the activity at 0.01 µM in assay [1] (Homo sapiens, Keratinocyte, Table 5B, RA, retinol 2.5 × 10^-8 M, methyl linoleate 10^-8 M, alone or combined, n = 3, read-out: TGase (TG1) level, % control) turned out to be 67%. Also, the “mean TGase ± s.d” value in assay [1] (Table 5B, RA, retinol 2.5 × 10^-8 M, methyl linoleate 10^-8 M, alone or combined, n = 3) is on record as 0.193 ± 0.033. In addition, the “effect on keratinocyte TG1 levels / differentiation, in words” value in assay [1] was “repressed TG1 to the same extent as 2.5×10^-8 M retinol”.

Turning to `CCCCC(=O)N(CCO)CCO` [Pentanoyl-DEA (C5-DEA)], the activity at 0.1 µM in assay [1] (Homo sapiens, Keratinocyte, Table 6C, RA, pentanoyl-DEA 10^-7 M, alone or combined, n = 3, read-out: TGase (TG1) level, % control) was found to be 99%. Also, in assay [1] (Table 6C (Effect on Keratinocyte TGase), RA, pentanoyl-DEA 10^-7 M, alone or combined, n = 3), the “mean TGase level ± s.d” value is 0.425 ± 0.079. Besides, in assay [1], the “effect on keratinocyte TG1 levels / differentiation, in words” value is listed as “no effect on keratinocyte TG1 levels”.

As for `CCCCCCCCCCCCCCCC(=O)OC/C=C(C)/C=C/C=C(C)/C=C/C1=C(C)CCCC1(C)C` [RP, retinyl palmitate], the activity at 0.25 µM in assay [2] (Homo sapiens, Keratinocyte, 24 h, Table 3A, RA 2.5 × 10^-9 M, RP 2.5 × 10^-7 M, linoleoyl-DEA 10^-8 M, alone or combined, n = 3, read-out: thymidine incorporation, % control) is 111%; in assay [1] (Homo sapiens, Keratinocyte, Table 3B, RA, RP 2.5 × 10^-7 M, linoleoyl-DEA 10^-6 M, alone or combined, n = 3, read-out: TGase (TG1) level, % control), 82%; in assay [1] (Homo sapiens, Keratinocyte, Table 8A, 2.5 × 10^-7 M, n = 3, read-out: TGase, % control) it was 82%. In assay [2] (Table 3A, RA 2.5 × 10^-9 M, RP 2.5 × 10^-7 M, linoleoyl-DEA 10^-8 M, alone or combined, n = 3), the “mean Thymidine incorp./μg protein ± s.d” value is given as 1884 ± 64 DPM/μg protein. Besides, the “effect on keratinocyte proliferation, in words” value in assay [2] was “increased keratinocyte thymidine incorporation over the control”. Also, the activity at 2.5 µM in assay [1] (Homo sapiens, Keratinocyte, Table 8A, 2.5 × 10^-6 M, n = 3, read-out: TGase, % control) amounted to 95%; in assay [1] (Homo sapiens, Keratinocyte, Table 8B, 2.5 × 10^-6 M, n = 3, read-out: TGase, % control), 52%. For the same compound, in assay [1] (Homo sapiens, Keratinocyte, Table 8A, 2.5 × 10^-8 M, n = 3, read-out: TGase, % control), the activity at 0.025 µM was found to be 82%. In addition, the activity at 0.0025 µM in assay [1] (Homo sapiens, Keratinocyte, Table 8A, 2.5 × 10^-9 M, n = 3, read-out: TGase, % control) came to 76%. In addition, in assay [1] (Homo sapiens, Keratinocyte, Table 8B, 2.5 × 10^-10 M, n = 3, read-out: TGase, % control), the activity at 0.00025 µM is 108%. In addition, the “mean TGase ± s.d” value worked out at 0.177 ± 0.026 in assay [1] (Table 3B, RA, RP 2.5 × 10^-7 M, linoleoyl-DEA 10^-6 M, alone or combined, n = 3); 0.206 ± 0.034 in assay [1] (Table 8A, 2.5 × 10^-6 M, n = 3); 0.177 ± 0.026 in assay [1] (Table 8A, 2.5 × 10^-7 M, n = 3); 0.177 ± 0.054 in assay [1] (Table 8A, 2.5 × 10^-8 M, n = 3); 0.165 ± 0.030 in assay [1] (Table 8A, 2.5 × 10^-9 M, n = 3); 0.063 ± 0.019 in assay [1] (Table 8B, 2.5 × 10^-6 M, n = 3). For the same compound, the “mean TGase ± s.d” value in assay [1] (Table 8B, 2.5 × 10^-10 M, n = 3) amounted to 0.132 ± 0.038.

With `CCCCC/C=C\C/C=C\CCCCCCCC(=O)NCCO` [linoleoyl-MEA, linoleoyl-monoethanolamide], the activity at 0.001 µM amounted to 67% in assay [2] (Homo sapiens, Keratinocyte, 24 h, alone or combined, 24 h, n = 3, read-out: thymidine incorporation, % control) and 67 ± 18% in assay [2] (Homo sapiens, Keratinocyte, 24 h, alone or combined, 24 h, normalized to ethanol control, n = 3, read-out: mean Thymidine incorp./μg protein ± s.d). Besides, the “effect on keratinocyte proliferation, in words” value in assay [2] is on record as “inhibitory effect on keratinocyte proliferation”.

For `CCCCCCCCCCCCCCCC(=O)NCCO` [palmitoyl-MEA, palmitoyl-monoethanolamide], the activity at 1 µM amounted to 97% in assay [2] (Homo sapiens, Keratinocyte, 24 h, alone or combined, n = 3, read-out: thymidine incorporation, % control) and 97.4 ± 8% in assay [2] (Homo sapiens, Keratinocyte, alone or combined, control = 1.000, n = 3, read-out: mean Thymidine incorp./μg protein ± s.d). In addition, in assay [2], the “effect on keratinocyte proliferation, in words” value is “Neither 10^-8 M palmitoyl-MEA nor 2.5×10^-8 M retinol had an effect on keratinocyte proliferation”.
